Data reported in US12441733B2, “Substituted 2,4-dioxotetrahydropyrimidines as intermediates in the synthesis of bruton's tyrosine kinase inhibitors” (Novartis AG, priority 2018, dated 2025).

Target: T1, BTK-GFP (Homo sapiens, UniProt Q06187+Q96SW2)
T1 construct: expressed in transfected cells; host or cells: HEK293A (Invitrogen R70507), lentiviral transduction with pLenti6-BTK-GFP-Ires-RFP, blasticidin selection
Test: BTK-GFP protein abundance flow cytometry assay in HEK293A cells
Format: cell-based
Conditions: HEK293A BTK-GFP-iresRFP cells, 24 h; for DC50: GFP signal by flow cytometry, concentration at which 50% maximal degradation was observed; for BTK deg Amax: % protein remaining at the concentration at which maximum degradation is seen
Method in brief: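 HEK293A cells stably expressing bicistronic BTK-GFP-IRES-RFP (C-terminal GFP tag) via lentiviral vector. Degradation read by flow cytometry as loss of GFP signal after degrader treatment. DC50 is concentration giving 50% maximal degradation; Amax is % protein remaining at maximal degradation.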

T1 sequence (Q06187 whole entry): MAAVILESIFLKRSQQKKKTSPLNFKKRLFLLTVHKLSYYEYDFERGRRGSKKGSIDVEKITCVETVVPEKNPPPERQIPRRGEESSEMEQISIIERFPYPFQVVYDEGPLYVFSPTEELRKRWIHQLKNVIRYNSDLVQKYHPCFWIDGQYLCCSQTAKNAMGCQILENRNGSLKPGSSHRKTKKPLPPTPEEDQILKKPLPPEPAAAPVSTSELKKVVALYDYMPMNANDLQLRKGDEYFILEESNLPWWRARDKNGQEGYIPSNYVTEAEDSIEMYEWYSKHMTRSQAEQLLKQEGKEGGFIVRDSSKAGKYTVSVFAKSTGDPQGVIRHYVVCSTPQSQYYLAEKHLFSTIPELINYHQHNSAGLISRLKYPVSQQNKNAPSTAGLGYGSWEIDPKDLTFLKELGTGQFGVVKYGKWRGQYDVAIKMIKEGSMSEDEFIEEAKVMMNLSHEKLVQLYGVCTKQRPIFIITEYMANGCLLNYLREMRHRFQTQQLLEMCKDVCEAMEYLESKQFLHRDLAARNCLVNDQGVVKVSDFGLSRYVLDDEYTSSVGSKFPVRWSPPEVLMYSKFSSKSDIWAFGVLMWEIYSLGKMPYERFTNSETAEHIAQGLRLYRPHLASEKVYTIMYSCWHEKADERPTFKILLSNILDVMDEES
T1 sequence (Q96SW2 whole entry): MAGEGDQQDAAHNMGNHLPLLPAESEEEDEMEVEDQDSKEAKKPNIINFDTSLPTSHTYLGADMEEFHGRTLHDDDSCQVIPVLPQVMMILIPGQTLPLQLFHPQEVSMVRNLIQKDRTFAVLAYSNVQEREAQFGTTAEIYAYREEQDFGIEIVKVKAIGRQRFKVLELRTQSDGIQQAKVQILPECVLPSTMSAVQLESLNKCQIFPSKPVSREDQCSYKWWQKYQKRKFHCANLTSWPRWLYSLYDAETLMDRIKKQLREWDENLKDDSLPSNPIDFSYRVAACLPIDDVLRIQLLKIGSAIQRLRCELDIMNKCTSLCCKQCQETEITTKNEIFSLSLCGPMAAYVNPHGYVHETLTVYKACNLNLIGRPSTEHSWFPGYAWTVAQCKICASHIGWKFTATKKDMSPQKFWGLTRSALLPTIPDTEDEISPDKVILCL
T1 sequence (Q16531 whole entry partner): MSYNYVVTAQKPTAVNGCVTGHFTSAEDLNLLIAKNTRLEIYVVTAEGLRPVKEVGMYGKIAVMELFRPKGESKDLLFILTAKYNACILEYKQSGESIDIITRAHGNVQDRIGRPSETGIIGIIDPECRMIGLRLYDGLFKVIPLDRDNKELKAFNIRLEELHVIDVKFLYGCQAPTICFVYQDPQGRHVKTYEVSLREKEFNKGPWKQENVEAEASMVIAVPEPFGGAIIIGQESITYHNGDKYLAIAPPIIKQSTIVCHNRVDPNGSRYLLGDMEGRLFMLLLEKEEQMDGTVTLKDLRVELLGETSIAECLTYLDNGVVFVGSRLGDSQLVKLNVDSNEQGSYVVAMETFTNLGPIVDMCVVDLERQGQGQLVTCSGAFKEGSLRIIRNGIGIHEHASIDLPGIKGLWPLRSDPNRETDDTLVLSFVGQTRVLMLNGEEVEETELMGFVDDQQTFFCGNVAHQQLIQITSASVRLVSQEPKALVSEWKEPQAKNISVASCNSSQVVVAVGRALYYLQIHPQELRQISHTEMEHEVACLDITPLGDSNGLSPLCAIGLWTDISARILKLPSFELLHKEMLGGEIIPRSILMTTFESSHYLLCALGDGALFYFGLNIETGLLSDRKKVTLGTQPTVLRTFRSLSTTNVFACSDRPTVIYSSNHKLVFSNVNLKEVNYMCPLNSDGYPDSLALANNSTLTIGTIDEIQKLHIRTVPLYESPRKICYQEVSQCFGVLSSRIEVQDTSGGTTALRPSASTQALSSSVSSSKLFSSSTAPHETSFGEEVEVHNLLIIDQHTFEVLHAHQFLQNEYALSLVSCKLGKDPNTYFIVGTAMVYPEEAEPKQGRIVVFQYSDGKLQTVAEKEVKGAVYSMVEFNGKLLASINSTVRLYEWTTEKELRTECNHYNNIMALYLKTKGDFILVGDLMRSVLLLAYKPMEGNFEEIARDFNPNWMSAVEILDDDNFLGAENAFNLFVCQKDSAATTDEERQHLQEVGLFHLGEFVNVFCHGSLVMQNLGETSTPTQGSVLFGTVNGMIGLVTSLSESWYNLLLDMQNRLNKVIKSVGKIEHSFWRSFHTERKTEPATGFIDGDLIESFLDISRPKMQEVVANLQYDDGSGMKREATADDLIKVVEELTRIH

DC50 | BTK deg Amax | SMILES
3.7 nM | 7.8% | CCOc1ccc(C(=O)N2CCC3(CCN(Cc4ccc(-c5cc6c(-c7cc(F)cc(NC(=O)c8ccc(C(C)(C)O)cc8F)c7C)ncnc6[nH]5)cc4)CC3)CC2)cc1N1CCC(=O)NC1=O [Compound 4, N-(3-(6-(4-((9-(3-(2,4-Dioxotetrahydropyrimidin-1(2H)-yl)-4-ethoxybenzoyl)-3,9-diazaspiro[5.5]undecan-3-yl)methyl)phenyl)-7H-pyrrolo[2,3-d]pyrimidin-4-yl)-5-fluoro-2-methylphenyl)-2-fluoro-4-(2-hydroxypropan-2-yl)benzamide]
1 nM | 3.1% | Cc1ccc(C(=O)N2CCC3(CCN(CCc4ccc(-c5cc6c(-c7cc(F)cc(NC(=O)c8ccc(C(C)(C)O)cc8F)c7C)ncnc6[nH]5)cc4)CC3)CC2)cc1N1CCC(=O)NC1=O [Compound 5, N-(3-(6-(4-(2-(9-(3-(2,4-Dioxotetrahydropyrimidin-1(2H)-yl)-4-methylbenzoyl)-3,9-diazaspiro[5.5]undecan-3-yl)ethyl)phenyl)-7H-pyrrolo[2,3-d]pyrimidin-4-yl)-5-fluoro-2-methylphenyl)-2-fluoro-4-(2-hydroxypropan-2-yl)benzamide]
0.7 nM | 4.1% | Cc1c(NC(=O)c2ccc(C(C)(C)O)cc2F)cc(F)cc1-c1ncnc2[nH]c(-c3ccc(COC4CCN(CCC5CCN(C(=O)c6ccc(F)c(N7CCC(=O)NC7=O)c6)CC5)CC4)cc3)cc12 [Compound 6, N-(3-(6-(4-(((1-(2(1-(3-(2,4-dioxotetrahydropyrimidin-1(2H)-yl)-4-fluorobenzoyl)piperidin-4-yl)ethyl)piperidin-4-yl)oxyl)methyl)phenyl)-7H-pyrrolo[2,3-d]pyrimidin-4-yl)-5-fluoro-2-methylphenyl)-2-fluoro-4-(2-hydroxypropan-2-yl)benzamide]
2.6 nM | 5.5% | COc1ccc(C(=O)N2CCC(OC3CCN(Cc4ccc(-c5cc6c(-c7cc(F)cc(NC(=O)c8ccc(C(C)(C)O)cc8F)c7C)ncnc6[nH]5)cc4)CC3)CC2)cc1N1CCC(=O)NC1=O [Compound 8, N-(3-(6-(4-((4-((1-(3-(2,4-dioxotetrahydropyrimidin-1(2H)-yl)-4-methoxybenzoyl)piperidin-4-yl)oxyl)piperidin-1-yl)methyl)phenyl)-7H-pyrrolo[2,3-d]pyrimidin-4-yl)-5-fluoro-2-methylphenyl)-2-fluoro-4-(2-hydroxypropan-2-yl)benzamide]
2.1 nM | 4.5% | COc1ccc(C(=O)N2CCC3(CCN(Cc4ccc(-c5cc6c(-c7cc(F)cc(NC(=O)c8ccc(C(C)(C)O)cc8F)c7C)ncnc6[nH]5)cc4)CC3)CC2)cc1N1CCC(=O)NC1=O [Compound 9, N-(3-(6-(4-((9-(3-(2,4-Dioxotetrahydropyrimidin-1(2H)-yl)-4-methoxybenzoyl)-3,9-diazaspiro[5.5]undecan-3-yl)methyl)phenyl)-7H-pyrrolo[2.3-d]pyrimidin-4-yl)-5-fluoro-2-methylphenyl)-2-fluoro-4-(2-hydroxypropan-2-yl)benzamide]
29.9 nM | 40.6% | Cc1c(NC(=O)c2ccc(C(C)(C)O)cc2F)cc(F)cc1-c1ncnc2[nH]c(-c3ccc(CCN4CCC5(CC4)CCN(C(=O)c4cccc(N6CCC(=O)NC6=O)c4)CC5)cc3)cc12 [Compound 12, N-(3-(6-(4-(2-(9-(3-(2,4-Dioxotetrahydropyrimidin-1(2H)-yl)benzoyl)-3,9-diazaspiro[5,5]undecan-3-yl)ethyl)phenyl)-7H-pyrrolo[2,3-d]pyrimidin-4-yl)-5-fluoro-2-methylphenyl)-2-fluoro-4-(2-hydroxypropan-2-yl)benzamide]
3.8 nM | 11.7% | Cc1c(NC(=O)c2ccc(C(C)(C)O)cc2F)cc(F)cc1-c1ncnc2[nH]c(-c3ccc(CN4CCC5(CC4)CCN(C(=O)c4ccc(F)c(N6CCC(=O)NC6=O)c4)CC5)cc3)cc12 [Compound 14, N-(3-(6-(4-((9-(3-(2,4-Dioxotetrahydropyrimidin-1(2H)-yl)-4-fluorobenzoyl)-3,9-diazaspiro[5.5]undecan-3-yl)methyl)phenyl)-7H-pyrrolo[2.3-d]pyrimidin-4-yl)-5-fluoro-2-methylphenyl)-2-fluoro-4-(2-hydroxypropan-2-yl)benzamide]
0.6 nM | 2.7% | COc1ccc(C(=O)N2CCC(CN3CCC(Oc4ccc(-c5cc6c(-c7cc(F)cc(NC(=O)c8ccc(C(C)(C)O)cc8F)c7C)ncnc6[nH]5)cc4)CC3)CC2)cc1N1CCC(=O)NC1=O [Compound 19, N-(3-(6-(4-((1-((1-(3-(2,4-Dioxotetrahydropyrimidin-1(2H)-yl)-4-methoxybenzoyl)piperidin-4-yl)methyl)piperidin-4-yl)oxyl)phenyl)-7H-pyrrolo[2,3-d]pyrimidin-4-yl)-5-fluoro-2-methylphenyl)-2-fluoro-4-(2-hydroxypropan-2-yl)benzamide]
2 nM | 1.1% | COc1ccc(C(=O)N2CCC3(CC2)CCN(C(C)(C)Cc2ccc(-c4cc5c(-c6cc(F)cc(NC(=O)c7ccc(C(C)(C)O)cc7F)c6C)ncnc5[nH]4)cc2)CC3)cc1N1CCC(=O)NC1=O [Compound 20, N-(3-(6-(4-(2-(9-(3-(2,4-Dioxotetrahydropyrimidin-1(2H)-yl)-4-methoxybenzoyl)-3,9-diazaspiro[5.5]undecan-3-yl)-2-methylpropyl)phenyl)-7H-pyrrolo[2,3-d]pyrimidin-4-yl)-5-fluoro-2-methylphenyl)-2-fluoro-4-(2-hydroxypropan-2-yl)benzamide]
23.7 nM | 6.5% | COc1ccc(C(=O)N2CCN(C(=O)N3CCN(Cc4ccc(-c5cc6c(-c7cc(F)cc(NC(=O)c8ccc(C(C)(C)O)cc8F)c7C)ncnc6[nH]5)cc4)CC3)CC2)cc1N1CCC(=O)NC1=O [Compound 22, N-(3-(6-(4-((4-(4-(3-(2,4-Dioxotetrahydropyrimidin-1(2H)-yl)-4-methoxybenzoyl)piperazine-1-carbonyl)piperazin-1-yl)methyl)phenyl)-7H-pyrrolo[2,3-d]pyrimidin-4-yl)-5-fluoro-2-methylphenyl)-2-fluoro-4-(2-hydroxypropan-2-yl)benzamide]
1.5 nM | 4.1% | Cc1ccc(C(=O)N2CCC3(CCN(Cc4ccc(-c5cc6c(-c7cc(F)cc(NC(=O)c8ccc(C(C)(C)O)cc8F)c7C)ncnc6[nH]5)cc4)CC3)CC2)cc1N1CCC(=O)NC1=O [Compound 27, N-(3-(6-(4-((9-(3-(2,4-Dioxotetrahydropyrimidin-1(2H)-yl)-4-methylbenzoyl)-3,9-diazaspiro[5.5]undecan-3-yl)methyl)phenyl)-7H-pyrrolo[2,3-d]pyrimidin-4-yl)-5-fluoro-2-methylphenyl)-2-fluoro-4-(2-hydroxypropan-2-yl)benzamide]
19.9 nM | 3.1% | Cc1cc(F)c(C(=O)NCCCCCNCc2ccc(-c3cc4c(-c5cc(F)cc(NC(=O)c6ccc(C(C)(C)O)cc6F)c5C)ncnc4[nH]3)cc2)cc1N1CCC(=O)NC1=O [Compound 29, 5-(2,4-Dioxotetrahydropyrimidin-1(2H)-yl)-2-fluoro-N—(S-((4-(4-(5-fluoro-3-(2-fluoro-4-(2-hydroxypropan-2-yl)benzamido)-2-methylphenyl)-7H-pyrrolo[2,3-d]pyrimidin-6-yl)benzyl)amino)pentyl)-4-methylbenzamide]
47.1 nM | 5.4% | Cc1ccc(C(=O)N(C)CCCCCNCc2ccc(-c3cc4c(-c5cc(F)cc(NC(=O)c6ccc(C(C)(C)O)cc6F)c5C)ncnc4[nH]3)cc2)cc1N1CCC(=O)NC1=O [Compound 30, 3-(2,4-Dioxotetrahydropyrimidin-1(2H)-yl)-N-(5-((4-(4-(5-fluoro-3-(2-fluoro-4-(2-hydroxypropan-2-yl)benzamido)-2-methylphenyl)-7H-pyrrolo[2,3-d]pyrimidin-6-yl)benzyl)amino)pentyl)-N,4-dimethylbenzamide]
2.5 nM | 3.4% | COc1ccc(C(=O)N2CCC3(CCN(CCc4ccc(-c5cc6c(-c7cc(F)cc(NC(=O)c8ccc(C(C)(C)O)cc8F)c7C)ncnc6[nH]5)cc4)CC3)CC2)cc1N1CCC(=O)NC1=O [Compound 31, N-(3-(6-(4-(2-(9-(3-(2,4-Dioxotetrahydropyrimidin-1(2H)-yl)-4-methoxybenzoyl)-3,9-diazaspiro[5.5]undecan-3-yl)ethyl)phenyl)-7H-pyrrolo[2,3-d]pyrimidin-4-yl)-5-fluoro-2-methylphenyl)-2-fluoro-4-(2-hydroxypropan-2-yl)benzamide]
3.9 nM | 1.7% | COc1ccc(C(=O)N2CCC(OC3CCN(CCc4ccc(-c5cc6c(-c7cc(F)cc(NC(=O)c8ccc(C(C)(C)O)cc8F)c7C)ncnc6[nH]5)cc4)CC3)CC2)cc1N1CCC(=O)NC1=O [Compound 34, N-(3-(6-(4-(2-(4-((1-(3-(2,4-Dioxotetrahydropyrimidin-1(2H)-yl)-4-methoxybenzoyl)piperidin-4-yl)oxyl)piperidin-1-yl)ethyl)phenyl)-7H-pyrrolo[2,3-d]pyrimidin-4-yl)-5-fluoro-2-methylphenyl)-2-fluoro-4-(2-hydroxypropan-2-yl)benzamide]
149 nM | 12.7% | COc1ccc(C(=O)NCCN2CCOC3(CCN(Cc4ccc(-c5cc6c(-c7cc(F)cc(NC(=O)c8ccc(C(C)(C)O)cc8F)c7C)ncnc6[nH]5)cc4)CC3)C2)cc1N1CCC(=O)NC1=O [Compound 39, N-(3-(6-(4-((4-(2-(3-(2,4-dioxotetrahydropyrimidin-1(2H)-yl)-4-methoxybenzamido)ethyl)-1-oxa-4,9-diazaspiro[5.5]undecan-9-yl)methyl)phenyl)-7H-pyrrolo[2,3-d]pyrimidin-4-yl)-5-fluoro-2-methylphenyl)-2-fluoro-4-(2-hydroxypropan-2-yl)benzamide]
